Results: patent US20140323418A1, “SELECTIVE KINASE INHIBITORS” (PORTOLA PHARMACEUTICALS, INC., priority 2011, published 2014)

Target: T1, full length active recombinant SYK enzyme (Homo sapiens, UniProt P43405)
T1 construct: full length active recombinant SYK enzyme (Millipore, Calif.); purchased Millipore
Assay: Inhibition of Syk tyrosine phosphorylation activity (LANCE TR-FRET kinase assay)
Type: biochemical
Conditions: 1 nM SYK, 550 nM substrate, 100 μM ATP, 1 hour room temperature

| SMILES | IC50 [nM] |
| --- | --- |
| CC(=O)N[C@H]1CCCC[C@H]1Nc1ncc(C(N)=O)c(Nc2cccc(-n3nccn3)c2)n1 [Example 196] | 100 to 1000 |
| COC(=O)C(C)(C)c1cccc(Nc2nc(N[C@@H]3CCCC[C@@H]3N)ncc2C(N)=O)c1 [Example 201] | 100 to 1000 |
| CC(C)(C(=O)O)c1cccc(Nc2nc(N[C@@H]3CCCC[C@@H]3N)ncc2C(N)=O)c1 [Example 203] | 100 to 1000 |
| CC[C@@H](Nc1nc(Nc2cc(C)ns2)ncc1C(N)=O)C(N)=O [Example 205] | 100 to 1000 |
| Cc1ccc(Nc2nc(NC[C@H](C)N)ncc2C(N)=O)cc1 [Example 207] | 100 to 1000 |
| NC(=O)c1cnc(N[C@H]2CCCNC2)nc1Nc1cnc2ccccc2c1 [Example 215, (S)-2-(piperidin-3-ylamino)-4-(quinolin-3-ylamino)pyrimidine-5-carboxamide] | 100 to 1000 |
| NC(=O)c1cnc(NC2CCNC2=O)nc1Nc1cnc2ccccc2c1 (stereo not shown) [Example 216, 2-((2-oxopyrrolidin-3-yl)amino)-4-(quinolin-3-ylamino)pyrimidine-5-carboxamide] | > 1000 |
| NC(=O)c1cnc(N[C@H]2CN[C@H](C(=O)O)C2)nc1Nc1cnc2ccccc2c1 [Example 217, (2S,4R)-4-((5-carbamoyl-4-(quinolin-3-ylamino)pyrimidin-2-yl)amino)pyrrolidine-2-carboxylic acid] | > 1000 |
| CNC(=O)[C@@H]1C[C@@H](Nc2ncc(C(N)=O)c(Nc3cccc(C)c3)n2)CN1 [Example 218, 2-(((3R,5S)-5-(methylcarbamoyl)pyrrolidin-3-yl)amino)-4-(m-tolylamino)pyrimidine-5-carboxamide] | > 1000 |
| Cc1cccc(Nc2nc(N[C@H]3CN[C@H](C(=O)N(C)C)C3)ncc2C(N)=O)c1 [Example 219, 2-(((3R,5S)-5-(dimethylcarbamoyl)pyrrolidin-3-yl)amino)-4-(m-tolylamino)pyrimidine-5-carboxamide] | > 1000 |
| CCN1CC[C@@H](Nc2ncc(C(N)=O)c(Nc3cccc(-n4nccn4)c3)n2)C1 [Example 223] | > 1000 |
| N#CCN1CC[C@@H](Nc2ncc(C(N)=O)c(Nc3cccc(-n4nccn4)c3)n2)C1 [Example 224] | 100 to 1000 |
| NC(=O)c1cnc(N[C@H]2CN[C@H](CO)C2)nc1Nc1cccc(-n2nccn2)c1 [Example 225] | 100 to 1000 |
| C=C1C[C@@H](Nc2ncc(C(N)=O)c(Nc3cccc(-n4nccn4)c3)n2)CN1 [Example 226] | 100 to 1000 |
| CC1=C[C@@H](Nc2ncc(C(N)=O)c(Nc3cccc(-n4nccn4)c3)n2)CN1 [Example 227] | 100 to 1000 |
| NC(=O)c1cnc(N[C@@H]2CCN(C=O)C2)nc1Nc1cccc(-n2nccn2)c1 [Example 228] | > 1000 |
| NC(=O)c1cnc(N[C@H]2CN[C@@H](CF)C2)nc1Nc1cccc(-n2nccn2)c1 [Example 229, 4-((3-(2H-1,2,3-triazol-2-yl)phenyl)amino)-2-(((3R,5R)-5-(fluoromethyl)pyrrolidin-3-yl)amino)pyrimidine-5-carboxamide] | 100 to 1000 |
| NC(=O)c1cnc(N[C@H]2CNC(=O)C2)nc1Nc1cccc(-n2nccn2)c1 [Example 230] | 100 to 1000 |
| NC(=O)c1cnc(N[C@@H]2CCC[C@H](F)[C@@H]2N)nc1Nc1cnc2ccccc2c1 [Example 241, 2-((1R,2R,3S)-2-amino-3-fluorocyclohexylamino)-4-(quinolin-3-ylamino)pyrimidine-5-carboxamide] | 100 to 1000 |
| Cc1ccc(Nc2ncc(C(N)=O)c(N[C@H]3CC[C@H](N)CC3)n2)cc1 [Example 244, 4-(trans-4-aminocyclohexylamino)-2-(p-tolylamino)pyrimidine-5-carboxamide] | 100 to 1000 |
| COc1ccc(Nc2ncc(C(N)=O)c(N[C@H]3CC[C@H](N)CC3)n2)cc1 [Example 245, 4-(trans-4-aminocyclohexylamino)-2-(4-methoxyphenylamino)pyrimidine-5-carboxamide] | 100 to 1000 |
| CC[C@@H](Nc1ncc(C(N)=O)c(Nc2cc(-n3cccn3)cc(-n3cccn3)c2)n1)C(N)=O [Example 250, (R)-2-((1-amino-1-oxobutan-2-yl)amino)-4-((3,5-di(1H-pyrazol-1-yl)phenyl)amino)pyrimidine-5-carboxamide] | 100 to 1000 |
| CC(=O)Oc1cnn(-c2cccc(Nc3nc(N[C@@H]4CCCC[C@@H]4N)ncc3C(N)=O)c2)n1 [Example 253, 2-(3-((2-(((1R,2S)-2-aminocyclohexyl)amino)-5-carbamoylpyrimidin-4-yl)amino)phenyl)-2H-1,2,3-triazol-4-yl acetate] | > 1000 |

More lines, now with the values ahead:

| IC50 [nM] | SMILES |
| --- | --- |
| 1 to 10 | Cc1csc(Nc2nc(N[C@@H](C(N)=O)C(C)C)ncc2C(N)=O)c1 [Example 195, (R)-2-(1-amino-3-methyl-1-oxobutan-2-ylamino)-4-(4-methylthiophen-2-ylamino)pyrimidine-5-carboxamide] |
| 10 to 100 | NC(=O)c1cnc(N[C@@H]2CCCC[C@@H]2N)nc1Nc1cccc(Oc2nc3ccccc3s2)c1 [Example 204] |
| 10 to 100 | Cc1cccc(Nc2nc(NCC(N)CC(F)F)ncc2C(N)=O)c1 (stereo not shown) [Example 206] |
| 10 to 100 | Cn1ccc2c(Nc3nc(N[C@@H]4CCNC4)ncc3C(N)=O)cccc21 [Example 212, (R)-4-((1-methyl-1H-indol-4-yl)amino)-2-(pyrrolidin-3-ylamino)pyrimidine-5-carboxamide] |
| 10 to 100 | NC(=O)c1cnc(N[C@@H]2CCNC2)nc1Nc1ccc2ncccc2c1 [Example 214, (R)-2-(pyrrolidin-3-ylamino)-4-(quinolin-6-ylamino)pyrimidine-5-carboxamide] |
| 10 to 100 | CN1CCCc2cc(Nc3nc(N[C@H]4CN[C@@H](CO)C4)ncc3C(N)=O)ccc21 [Example 220, 2-(((3R,5R)-5-(hydroxymethyl)pyrrolidin-3-yl)amino)-4-((1-methyl-1,2,3,4-tetrahydroquinolin-6-yl)amino)pyrimidine-5-carboxamide] |
| 1 to 10 | NC(=O)c1cnc(N[C@@H]2CCNC2)nc1Nc1cccc(-n2nccn2)c1 [Example 221, (R)-4-(3-(2H-1,2,3-triazol-2-yl)phenyeamino)-2-(pyrrolidin-3-ylamino)pyrimidine-5-carboxamide] |
| 10 to 100 | NC(=O)c1cnc(N[C@@H]2CCNC2)nc1Nc1cccc(-c2ncccn2)c1 [Example 222] |
| 10 to 100 | Cc1nsc(Nc2nc(N[C@@H]3CCCC[C@@H]3N)ncc2C(N)=O)c1I [Example 231, 2-(((1R,2S)-2-aminocyclohexyl)amino)-4-((4-iodo-3-methylisothiazol-5-yl)amino)pyrimidine-5-carboxamide] |
| 10 to 100 | Cc1nsc(Nc2nc(N[C@@H]3CCCC[C@@H]3N)ncc2C(N)=O)c1Cl [Example 232, 2-(((1R,2S)-2-aminocyclohexyl)amino)-4-((4-chloro-3-methylisothiazol-5-yl)amino)pyrimidine-5-carboxamide] |
| 10 to 100 | NC(=O)c1cnc(N[C@@H]2CCC[C@H](F)[C@@H]2N)nc1Nc1cccc(-n2nccn2)c1 [Example 235, 4-(3-(2H-1,2,3-triazol-2-yl)phenylamino)-2-((1R,2R,3S)-2-amino-3-fluorocyclohexylamino)pyrimidine-5-carboxamide] |
| 10 to 100 | NC(=O)c1cnc(N[C@@H]2CCC[C@H](F)[C@@H]2N)nc1Nc1cccc(-c2ncccn2)c1 [Example 236, 2-((1R,2R,3S)-2-amino-3-fluorocyclohexylamino)-4-(3-(pyrimidin-2-yl)phenylamino)pyrimidine-5-carboxamide] |
| 10 to 100 | NC(=O)c1cnc(N[C@@H]2CCC[C@H](F)[C@@H]2N)nc1Nc1ccc2ncccc2c1 [Example 237, 2-((1R,2R,3S)-2-amino-3-fluorocyclohexylamino)-4-(quinolin-6-ylamino)pyrimidine-5-carboxamide] |
| 10 to 100 | NC(=O)c1cnc(N[C@@H]2CCC[C@H](F)[C@@H]2N)nc1Nc1cccc(-n2cccn2)c1 [Example 238, 4-(3-(1H-pyrazol-1-yl)phenylamino)-2-((1R,2R,3S)-2-amino-3-fluorocyclohexylamino)pyrimidine-5-carboxamide] |
| 10 to 100 | NC(=O)c1cnc(N[C@@H]2CCC[C@H](F)[C@@H]2N)nc1Nc1ccc2ncsc2c1 [Example 239, 2-((1R,2R,3S)-2-amino-3-fluorocyclohexylamino)-4-(benzo[d]thiazol-6-ylamino)pyrimidine-5-carboxamide] |
| 10 to 100 | Cn1ncc2c(Nc3nc(N[C@@H]4CCC[C@H](F)[C@@H]4N)ncc3C(N)=O)cccc21 [Example 240, 2-((1R,2R,3S)-2-amino-3-fluorocyclohexylamino)-4-(1-methyl-1H-indazol-4-ylamino)pyrimidine-5-carboxamide] |
| 1 to 10 | NC(=O)c1cnc(N[C@@H]2CCCC[C@@H]2N)nc1Nc1cc(-n2cccn2)cc(-n2cccn2)c1 [Example 249, 2-(((1R,2S)-2-aminocyclohexyl)amino)-4-((3,5-di(1H-pyrazol-1-yl)phenyl)amino)pyrimidine-5-carboxamide] |
| 10 to 100 | NC(=O)c1cnc(N[C@@H]2CCCC[C@@H]2N)nc1Nc1cccc(-n2ncc[n+]2[O-])c1 [Example 251, 2-(3-((2-(((1R,2S)-2-aminocyclohexyl)amino)-5-carbamoylpyrimidin-4-yl)amino)phenyl)-2H-1,2,3-triazole 1-oxide] |
| 1 to 10 | NC(=O)c1cnc(N[C@@H]2CCCC[C@@H]2N)nc1Nc1cccc(-n2ncc(O)n2)c1 [Example 252, 2-(((1R,2S)-2-aminocyclohexyl)amino)-4-((3-(4-hydroxy-2H-1,2,3-triazol-2-yl)phenyl)amino)pyrimidine-5-carboxamide] |
| 10 to 100 | NC(=O)c1cnc(N[C@@H]2CCCC[C@@H]2N)nc1Nc1ccc(-c2ncco2)cc1 [Example 255, 2-(((1R,2S)-2-aminocyclohexyl)amino)-4-((4-(oxazol-2-yl)phenyl)amino)pyrimidine-5-carboxamide] |
